Laboratory results taken from patent US20150141386A1, “USE OF VITAMIN K TO DECREASE ALLOGRAFT FAILURE AND PATIENT MORTALITY AFTER ORGAN TRANSPLANTATION” (VITAK B.V., priority 2012, published 2015).

What was measured:
osteocalcin (OC) [1] = conditions: cited from earlier work
osteocalcin (OC) [2] = test: Circulating uncarboxylated osteocalcin (ucOC) / OC carboxylation in vitamin K intervention studies; format: in vivo, human
Description: (§1) Blood was drawn after an 8-12 h overnight fasting period to prepare serum and citrated plasma, which were subsampled and frozen at −80° C. until use. Renal allograft function was assessed as the 24 h urinary creatinine clearance (CrCl), i.e. the 24 h urinary creatinine excretion divided by the serum creatinine concentration. Vitamin K status was assessed from plasma dp-ucMGP concentrations as described elsewhere {Cranenburg EC et al. Thromb. Haemostas. 104 (2010) 811-822} and from ucOC using a commercial dual antibody ELISA test kit (Takara Shuzo Co. Ltd., Otsu, Shiga, Japan). An in-house control serum pool was run on all ELISA plates. The primary end-points of this study were death-censored graft failure and change in kidney function. Death-censored graft failure was defined as return to dialysis therapy or re-transplant. Change in kidney function was defined as estimated GFR (eGFR) at baseline subtracted by eGFR at the last follow-up visit, divided by time from baseline to follow-up and expressed in millilitres per minute per 1.73 m^2 per year. […] Calculating a slope instead of a change in eGFR therefore will underestimate a patient's true kidney function decrease. For patients who died with a functioning graft (n=78), eGFR at follow-up was defined as kidney function at the last visit to the outpatient clinic before death, and for patients with graft failure (n=42), eGFR at follow-up was defined as the eGFR at the last visit to the outpatient clinic before starting dialysis therapy or re-transplant. There was no loss to follow-up.
Recommended doses of vitamin K for treating transplant patients. […] On top of this, chronic kidney disease (CKD) patients are known to have much more pronounced vitamin K insufficiency than healthy subjects {Schlieper G et al. J. Am. Soc. Nephrol., 22 (2011) 387-395}. Therefore, the estimated range for optimal effect is dependent on the disease state and may be higher than estimated from literature data. […] This was shown in archived samples from a vitamin K1-intervention study initially described in 2003 {Braam L A et al. Am. J. Sports Med. 31 (2003) 889-895}. […] This was shown in archived samples from a vitamin K1-intervention study initially described in 2003 {Braam L A et al. Calcif. Tissue Int. 73 (2003) 21-26}. During the first 6 months of the study, circulating ucOC in the vitamin K-treated group decreased from 4.2 ng/mL to 0.8 ng/mL, whereas in the control samples a non-significant increase was observed from 4.4 ng/mL to 4.7 ng/mL. […] 109 (2007) 3279-3283}. […]

circulating OC and MGP = test: Gla-protein carboxylation (circulating OC and MGP) after vitamin K supplementation; format: in vivo, human
Description: (§2) Recommended doses of vitamin K for treating transplant patients. […] On top of this, chronic kidney disease (CKD) patients are known to have much more pronounced vitamin K insufficiency than healthy subjects {Schlieper G et al. J. Am. Soc. Nephrol., 22 (2011) 387-395}. Therefore, the estimated range for optimal effect is dependent on the disease state and may be higher than estimated from literature data. […] This was shown in archived samples from a vitamin K1-intervention study initially described in 2003 {Braam L A et al. Am. J. Sports Med. 31 (2003) 889-895}. […] This was shown in archived samples from a vitamin K1-intervention study initially described in 2003 {Braam L A et al. Calcif. Tissue Int. 73 (2003) 21-26}. During the first 6 months of the study, circulating ucOC in the vitamin K-treated group decreased from 4.2 ng/mL to 0.8 ng/mL, whereas in the control samples a non-significant increase was observed from 4.4 ng/mL to 4.7 ng/mL. […] 109 (2007) 3279-3283}.
(§3) the optimal dose for Gla-protein carboxylation in subjects free from CKD lies between 5 and 2,000 μg/day, preferably between 50 and 1,000 μg/day, more preferably between 100 and 1,000 μg/day and most preferably between 200 and 500 μg/day for subjects with baseline levels in the normal range. […] The decreases of circulating dp-ucMGP and ucOC are shown in FIG. 10. • Lower doses were tested in a number of small studies with a significant effect at 200 μg/day and a half-maximum effect at 500 μg/day.
the optimal dose for Gla-protein carboxylation in subjects free from kidney disease lies between 5 and 3,000 μg/day, preferably between 50 and 2,000 μg/day, more preferably between 100 and 1,000 μg/day and most preferably between 200 and 500 μg/day for subjects with baseline levels in the normal range. […] Treatment should be guided by the circulating levels of dp-ucMGP, ucOC, or uncarboxylated species of any other suitable Gla-protein. • MK-n: The long-chain menaquinones are selected from the group menaquinone-7, menaquinone-8, menaquinone-9, and menaquinone-10. The long half-life times of the long-chain menaquinones make that the optimal dose for Gla-protein carboxylation is lower than for vitamin K1 {Schurgers L J et al. Biochim. Biophys. Acta 1570 (2002) 27-32}. […] A clear dose-dependent increase of MGP carboxylation was found, for instance, between 45 μg/day and 360 μg/day {Westenfeld R et al. Am. J. Kidney Dis. 59 (2012) 186-195}.

Matrix Gla-Protein (MGP) = test: Circulating desphospho-uncarboxylated MGP (dp-ucMGP) / MGP carboxylation in vitamin K intervention studies; format: in vivo, human; conditions: for circulating dp-ucMGP at start: baseline
Description: as §1, §2, §3

[3] = in vivo; cited from earlier work

Row | Compound | effect on the carboxylation degree of circulating OC (osteocalcin (OC) [1]; K1 140 μg/day) | circulating ucOC at start (osteocalcin (OC) [2]; K1 1,000 μg/day group, baseline) | circulating ucOC after treatment (osteocalcin (OC) [2]; K1 1,000 μg/day, first 6 months of the study) | circulating ucOC level at start (osteocalcin (OC) [2]; K1 10,000 μg/day group, baseline of 2-year study) | circulating ucOC level after treatment (osteocalcin (OC) [2]; K1 10,000 μg/day, first 6 months of 2-year study, background = buffer values) | OC and MGP carboxylation (circulating OC and MGP; K1 1,000 μg/day, healthy volunteers) | carboxylation of circulating OC and MGP (circulating OC and MGP; K1 10,000 μg/day, archived samples of vitamin K1-intervention study) | circulating dp-ucMGP after treatment (Matrix Gla-Protein (MGP); K1 1,000 μg/day (FIG. 8)) | circulating dp-ucMGP at start (Matrix Gla-Protein (MGP); K1 1,000 μg/day group) | circulating dp-ucMGP after treatment (Matrix Gla-Protein (MGP); K1 10,000 μg/day (FIG. 7)) | circulating dp-ucMGP at start (Matrix Gla-Protein (MGP); K1 10,000 μg/day group) | circulating half-life time [3] | carboxylation of circulating OC (osteocalcin (OC) [1]; MK-4 45,000 μg/day taken for 6 months) | dose with half-maximum effect on Gla-protein carboxylation (circulating OC and MGP; lower doses, small studies) | dose with significant effect on Gla-protein carboxylation (circulating OC and MGP; lower doses, small studies) | circulating dp-ucMGP change (Matrix Gla-Protein (MGP); MK-4 45,000 μg/day (FIG. 9))
1 | CC1=C(C/C=C(\C)CCC[C@H](C)CCC[C@H](C)CCCC(C)C)C(=O)c2ccccc2C1=O [K1, phylloquinone] | less pronounced but statistically significant effect | 4.2 ng/mL | 0.8 ng/mL | 4.6 ng/mL | not different from background | substantial increase | more than 95% | 112 pM | 389 pM | 23 pM | 182 pM | around 1.5 h | – | – | – | –
2 | CC(C)=CCC/C(C)=C/CC/C(C)=C/CC/C(C)=C/CC1=C(C)C(=O)c2ccccc2C1=O [MK-4, menaquinone-4] | – | – | – | – | – | – | – | – | – | – | – | 1 h | complete carboxylation | 500 µg/day | 200 µg/day | decrease
